Experimental data as given in patent publication US6878531B1, “Method for multiple site-directed mutagenesis” (Medical College of Georgia Research Institute, priority 2003, dated 2005).
In brackets after ≈: the same amount, converted by molar mass.

Tested on: C.albicans cells
Assay: Effective inhibitory concentrations for C.albicans cells grown in YPD medium
Format: cell-based, Candida albicans
Conditions: C.albicans cells grown in YPD medium at 30° C.

CN[C@@H]1[C@@H](O)[C@@H](O[C@@H]2[C@@H](O)[C@H](O[C@H]3O[C@H]([C@@H](C)O)[C@@H](O)[C@H](O)[C@H]3N)[C@@H](N)C[C@H]2N)OC[C@]1(C)O [G418]
IC50 (effective inhibitory concentration): 11 µg/mL (≈ 22.2 µM) | IC90 (effective inhibitory concentration): 39 µg/mL (≈ 78.5 µM)
